# Experimental data as given in patent US10017506B2, “ATX modulating agents” (BIOGEN MA INC., priority 2012, dated 2018).
# Biological target: T1, Human ATX protein (Homo sapiens, UniProt Q13822)
# T1 construct: made in house
# Assay: ATX biochemical FRET assay with FS-3 substrate
# Conditions: FRET substrate FS-3 2 μM, ATX 1.0 μg/mL, 30 minutes pre-incubation, 2 hours at room temperature; read-out: IC50
# Text: ATX (Autotaxin) is a 125 KDa glycoprotein with lysophospholipase D (LPLD) activity that generates the bioactive lipid lysophosphatidic acid (LPA) from lysophosphatidylcholine (LPC). The ATX biochemical assay utilizes a FRET (fluorescence resonance energy transfer) technology platform. The fluorescence signal of FRET substrate FS-3 is quenched due to intra-molecular FRET of a fluorophore to a non-fluorescing quencher (Ferguson, C. G., et al., Org Lett. 2006 May 11; 8(10): 2023-2026, which is incorporated by reference in its entirety). ATX catalyzes the hydrolysis of the substrate which separates the dabsyl quencher from the fluorescein reporter, which becomes fluorescent. The reaction is monitored by a SpectraMax M5 (Molecular Devices, Sunnyvale, Calif.) with at excitation wavelength 485 nm and emission wavelength […].
# Fatty acid free-BSA (Sigma A8806): 10 mg/mL in H2O, stored at 4° C.
# 2×ATX assay buffer: 100 mM Tris, 280 mM NaCl, 10 mM KCl, 2 mM CaCl2, 2 mM MgCl2, pH 7.4.
# Human ATX protein: expressed and purified in house. Stored at −80° C.
# Substrate FS-3 (Echelon, L-2000): 100 μg in 77.74 μL H2O (1 mM stock), stored at −20° C.
# 384-well flat bottom plates—Corning #3575.
# Compound dilution—All compounds were provided at 10 mM in 100% DMSO. In the first well, 2 μL of 10 mM compound was added to 78 μL of DMSO (1:40 dilution). In subsequent wells 3-fold dilution (total 10 dilutions) were performed.
# 1×ATX assay buffer was made up with a final concentration of 1 mg/mL fatty acid free-BSA using 2×ATX assay buffer, 10 mg/ml fatty acid free-BSA and ddH2O.
# ATX protein was diluted with 1×ATX assay buffer to a concentration of 1.32 μg/mL (1.32×). 38 μL was added per well to the assay plate. The final concentration of ATX in the reaction as 1.0 μg/mL.
# 2 μL per well of compounds was transferred to provide the desired concentration. The plate was centrifuged, then incubated at room temperature for 30 minutes on the shaker.
# Then, 10 μL was added per well to the assay plate. […] The plate was centrifuged. The plate was kept shaking at room temperature for 2 hours. Because FS-3 substrate is light sensitive, plates were kept covered and protected from light.
# Fluorescence was measured using SpectraMax M5 (excitation at 485 nm/emission at 538 nm, top read).
row,IC50 [nM],Structure (SMILES)
1,≤ 500,"CCC(N[C@H]1C[C@@H](C(=O)O)C1(C)C)c1ccc2ccc(O[C@H]3CC[C@@H](C(F)(F)F)CC3)c(Cl)c2c1 (stereo partly drawn) [Example 32, (1R,3S)-3-((1-(8-chloro-7-((cis-4-(trifluoromethyl)cyclohexyl)oxy)naphthalen-2-yl)propyl)amino)-2,2-dimethylcyclobutanecarboxylic acid]"
2,≤ 500,"O=C(O)C1CCN(Cc2ccc3ccc(O[C@H]4CC[C@@H](C(F)(F)F)CC4)c(C(F)(F)F)c3c2)CC1 [Example 43, 1-((8-(trifluoromethyl)-7-((cis-4-(trifluoromethyl)cyclohexyl)oxy)naphthalen-2-yl)methy 1)piperidine-4-carboxylic acid]"
3,≤ 100,"CC(c1ccc2ccc(O[C@H]3CC[C@@H](C(F)(F)F)CC3)c(C(F)(F)F)c2c1)N1CCC(C(=O)O)CC1 (stereo partly drawn) [Example 44, 1-(1-(8-(trifluoromethyl)-7-((cis-4-(trifluoromethyl)cyclohexyl)oxy)naphthalen-2-yl)ethyl)piperidine-4-carboxylic acid]"
4,≤ 250,"CCC(c1ccc2ccc(O[C@H]3CC[C@@H](C(F)(F)F)CC3)c(C(F)(F)F)c2c1)N1CCC(C(=O)O)CC1 (stereo partly drawn) [Example 45, 1-(1-(8-(trifluoromethyl)-7-((cis-4-(trifluoromethyl)cyclohexyl)oxy)naphthalene-2-yl)propyl)piperidine-4-carboxylic acid]"
5,≤ 500,"CC[C@H]1CC[C@@H](Oc2ccc3ccc(CN4CCC(C(=O)O)CC4)cc3c2C(F)(F)F)CC1 [Example 50, 1-((7-((cis-4-ethylcyclohexyl)oxy)-8-(trifluoromethyl)naphthalen-2-yl)methyl)piperidine-4-carboxylic acid]"
6,≤ 500,"CC[C@H]1CC[C@@H](Oc2ccc3ccc(CN4CCC[C@H](CC(=O)O)C4)cc3c2C(F)(F)F)CC1 [Example 53, 2-((R)-1-((7-((cis-4-ethylcyclohexyl)oxy)-8-(trifluoromethyl)naphthalen-2-yl)methyl)piperidin-3-yl)acetic acid]"
7,≤ 500,"CC[C@H]1CC[C@@H](Oc2ccc3ccc(CNC4CC(C(=O)O)C4(C)C)cc3c2C(F)(F)F)CC1 (stereo partly drawn) [Example 54, 3-(((7-((cis-4-ethylcyclohexyl)oxy)-8-(trifluoromethyl)naphthalen-2-yl)methyl)amino)-2,2-dimethylcyclobutanecarboxylic acid]"
8,≤ 100,"CC[C@H]1CC[C@@H](Oc2ccc3ccc(C(C)N4CCC(C(=O)O)CC4)cc3c2C(F)(F)F)CC1 (stereo partly drawn) [Example 57, 1-(1-(7-((cis-4-ethylcyclohexyl)oxy)-8-(trifluoromethyl)naphthalen-2-yl)ethyl)piperidine-4-carboxylic acid]"

# Same assay, conditions: IC50, FRET substrate FS-3 2 μM, ATX 1.0 μg/mL, 30 minutes pre-incubation, 2 hours at room temperature
row,Structure (SMILES),IC50 [nM]
1,"O=C(O)C1CC2CCCC(C1)N2Cc1ccc2ccc(O[C@H]3CC[C@@H](C(F)(F)F)CC3)c(Cl)c2c1 (stereo partly drawn) [Example 27, 9-((8-chloro-7-((cis-4-(trifluoromethyl)cyclohexyl)oxy)naphthalen-2-yl)methyl)-9-azabicyclo[3.3.1]nonane-3-carboxylic acid]",≤ 100
2,"CC(c1ccc2ccc(O[C@H]3CC[C@@H](C(F)(F)F)CC3)c(Cl)c2c1)N1C2CCC1CC(C(=O)O)C2 (stereo partly drawn) [Example 29, 8-(1-(8-chloro-7-((cis-4-(trifluoromethyl)cyclohexyl)oxy)naphthalen-2-yl)ethyl)-8-azabicyclo[3.2.1]octane-3-carboxylic acid]",≤ 250
3,"CC(c1ccc2ccc(O[C@H]3CC[C@@H](C(F)(F)F)CC3)c(Cl)c2c1)N1C2CCCC1CC(C(=O)O)C2 (stereo partly drawn) [Example 30, 9-(1-(8-chloro-7-((cis-4-(trifluoromethyl)cyclohexyl)oxy)naphthalen-2-yl)ethyl)-9-azabicyclo[3.3.1]nonane-3-carboxylic acid]",≤ 250
4,"N#Cc1c(O[C@H]2CC[C@@H](C(F)(F)F)CC2)ccc2ccc(CN3C4CCC3CC(C(=O)O)C4)cc12 (stereo partly drawn) [Example 34, 8-((8-cyano-7-((cis-4-(trifluoromethyl)cyclohexyl)oxy)naphthalen-2-yl)methyl)-8-azabicyclo[3.2.1]octane-3-carboxylic acid]",≤ 250
5,"N#Cc1c(O[C@H]2CC[C@@H](C(F)(F)F)CC2)ccc2ccc(CN3C4CCCC3CC(C(=O)O)C4)cc12 (stereo partly drawn) [Example 35, 9-((8-cyano-7-((cis-4-(trifluoromethyl)cyclohexyl)oxy)naphthalen-2-yl)methyl)-9-azabicyclo[3.3.1]nonane-3-carboxylic acid]",≤ 250
6,"CC(c1ccc2ccc(O[C@H]3CC[C@@H](C(F)(F)F)CC3)c(C#N)c2c1)N1C2CCC1CC(C(=O)O)C2 (stereo partly drawn) [Example 37, 8-(1-(8-cyano-7-((cis-4-(trifluoromethyl)cyclohexyl)oxy)naphthalen-2-yl)ethyl)-8-azabicyclo[3.2.1]octane-3-carboxylic acid]",≤ 100
7,"CC(c1ccc2ccc(O[C@H]3CC[C@@H](C(F)(F)F)CC3)c(C#N)c2c1)N1C2CCCC1CC(C(=O)O)C2 (stereo partly drawn) [Example 38, 9-(1-(8-cyano-7-((cis-4-(trifluoromethyl)cyclohexyl)oxy)naphthalen-2-yl)ethyl)-9-azabicyclo[3.3.1]nonane-3-carboxylic acid]",≤ 100
8,"CCC(c1ccc2ccc(O[C@H]3CC[C@@H](C(F)(F)F)CC3)c(C#N)c2c1)N1C2CCC1CC(C(=O)O)C2 (stereo partly drawn) [Example 40, 8-(1-(8-cyano-7-((cis-4-(trifluoromethyl)cyclohexyl)oxy)naphthalen-2-yl)propyl)-8-azabicyclo[3.2.1]octane-3-carboxylic acid]",≤ 500
9,"CCC(c1ccc2ccc(O[C@H]3CC[C@@H](C(F)(F)F)CC3)c(C#N)c2c1)N1C2CCCC1CC(C(=O)O)C2 (stereo partly drawn) [Example 41, 9-(1-(8-cyano-7-((cis-4-(trifluoromethyl)cyclohexyl)oxy)naphthalen-2-yl)propyl)-9-azabicyclo[3.3.1]nonane-3-carboxylic acid]",≤ 250
10,"CC(c1ccc2ccc(O[C@H]3CC[C@@H](C(F)(F)F)CC3)c(C(F)F)c2c1)N1C2CCC1CC(C(=O)O)C2 (stereo partly drawn) [Example 42, 8-(1-(8-(difluoromethyl)-7-((cis-4-(trifluoromethyl)cyclohexyl)oxy)naphthalen-2-yl)ethyl)-8-azabicyclo[3.2.1]octane-3-carboxylic acid]",≤ 100
11,"[2H]C([2H])([2H])[C@@H](c1ccc2ccc(O[C@H]3CC[C@@H](C(F)(F)F)CC3)c(C(F)(F)F)c2c1)N1C2CCC1CC(C(=O)O)C2 (stereo partly drawn) [Example 46, 8-((S)-1-(8-(trifluoromethyl)-7-((cis-4-(trifluoromethyl)cyclohexyl)oxy)naphthalen-2-yl)-2,2,2-trideuteroethyl)-8-azabicyclo[3.2.1]octane-3-carboxylic acid]",≤ 100
12,"CC[C@H]1CC[C@@H](Oc2ccc3ccc(CN4C5CCC4CC(C(=O)O)C5)cc3c2Cl)CC1 (stereo partly drawn) [Example 48, 8-((8-chloro-7-((cis-4-ethylcyclohexyl)oxy)naphthalen-2-yl)methyl)-8-azabicyclo[3.2.1]octane-3-carboxylic acid]",≤ 100
13,"CC[C@H]1CC[C@@H](Oc2ccc3ccc(CN4C5CCC4CC(C(=O)O)C5)cc3c2C(F)(F)F)CC1 (stereo partly drawn) [Example 51, 8-((7-((cis-4-ethylcyclohexyl)oxy)-8-(trifluoromethyl)naphthalen-2-yl)methyl)-8-azabicyclo[3.2.1]octane-3-carboxylic acid]",≤ 100
14,"CC[C@H]1CC[C@@H](Oc2ccc3ccc(CN4C5CCCC4CC(C(=O)O)C5)cc3c2C(F)(F)F)CC1 (stereo partly drawn) [Example 52, 9-((7-((cis-4-ethylcyclohexyl)oxy)-8-(trifluoromethyl)naphthalen-2-yl)methyl)-9-azabicyclo[3.3.1]nonane-3-carboxylic acid]",≤ 100
15,"CC[C@H]1CC[C@@H](Oc2ccc3ccc(C(C)N4C5CCC4CC(C(=O)O)C5)cc3c2C(F)(F)F)CC1 (stereo partly drawn) [Example 55, 8-(1-(7-((cis-4-ethylcyclohexyl)oxy)-8-(trifluoromethyl)naphthalen-2-yl)ethyl)-8-azabicyclo[3.2.1]octane-3-carboxylic acid]",≤ 100
16,"CC[C@H]1CC[C@@H](Oc2ccc3ccc(C(C)N4C5CCCC4CC(C(=O)O)C5)cc3c2C(F)(F)F)CC1 (stereo partly drawn) [Example 56, 9-(1-(7-((cis-4-ethylcyclohexyl)oxy)-8-(trifluoromethyl)naphthalen-2-yl)ethyl)-9-azabicyclo[3.3.1]nonane-3-carboxylic acid]",≤ 100
